{
  "source": "patent US9529005B2",
  "about": "“Modulating bacterial MAM polypeptides in pathogenic disease” (priority 2011, dated 2016)",
  "test_in_all_cases": "Antimicrobial susceptibility testing (MIC), BD Phoenix Automated Microbiology System; for interpretation of the result: key: R, resistant; I, intermediate; S, susceptible; R*: *As a rule, when ESBL is detected, an interpretation of susceptible or intermediate for penicillins, cephalosporins and aztreonam is reported as resistant",
  "type_in_all_cases": "cell-based",
  "key": {"Acinetobacter baumannii": {"system": "Acinetobacter baumannii", "conditions": "for MIC: Acinetobacter baumannii", "source_text": "(§1) The inventors performed antimicrobial susceptibility testing (AST) by determining the minimal inhibiting concentration (MIC) of a panel of antimicrobials on all twenty bacterial isolates using the BD Phoenix Automated Microbiology System (Table 3). Antimicrobial panels included several drugs from each of the four most commonly used classes of antimicrobials, aminoglycosides, β-lactams, carbapenems and fluoroquinolones. The panels also included antimicrobials from other classes, such as trimethoprim/sulfamethoxazole, but resistance to these was not considered in the classification of isolates as multidrug-resistant."}, "Escherichia coli": {"system": "Escherichia coli", "conditions": "for MIC: Escherichia coli", "source_text": "as §1"}, "Klebsiella ssp.": {"system": "Klebsiella ssp.", "conditions": "for MIC: Klebsiella", "source_text": "as §1"}, "Pseudomonas aeruginosa": {"system": "Pseudomonas aeruginosa", "conditions": "for MIC: Pseudomonas aeruginosa", "source_text": "as §1"}, "[1]": {"conditions": "Acinetobacter baumannii isolate 1"}, "[2]": {"conditions": "Acinetobacter baumannii isolate 2"}, "[3]": {"conditions": "Acinetobacter baumannii isolate 3"}, "[4]": {"conditions": "Acinetobacter baumannii isolate 4"}, "[5]": {"conditions": "Acinetobacter baumannii isolate 5"}, "[6]": {"conditions": "Pseudomonas aeruginosa isolate 1"}, "[7]": {"conditions": "Pseudomonas aeruginosa isolate 2"}, "[8]": {"conditions": "Pseudomonas aeruginosa isolate 3"}, "[9]": {"conditions": "Pseudomonas aeruginosa isolate 4"}, "[10]": {"conditions": "Pseudomonas aeruginosa isolate 5"}},
  "note": "Like-named read-outs stand apart in the source and are kept apart here.",
  "data": [
    {"smiles": "CC(C)(O/N=C(\\C(=O)N[C@@H]1C(=O)N2C(C(=O)[O-])=C(C[n+]3ccccc3)CS[C@H]12)c1csc(N)n1)C(=O)O", "note": "[Ceft., Ceftazidime]", "values": [
      {"measurement": "interpretation of the result", "setting": "Acinetobacter baumannii; [1]", "result": "R"},
      {"measurement": "interpretation of the result", "setting": "Acinetobacter baumannii; [2]", "result": "R"},
      {"measurement": "interpretation of the result", "setting": "Acinetobacter baumannii; [3]", "result": "S"},
      {"measurement": "interpretation of the result", "setting": "Acinetobacter baumannii; [4]", "result": "R"},
      {"measurement": "interpretation of the result", "setting": "Acinetobacter baumannii; [5]", "result": "R"},
      {"measurement": "MIC", "setting": "Acinetobacter baumannii; Acinetobacter baumannii isolate 1, read-out: minimal inhibiting concentration", "result": "> 16", "unit": "µg/mL"},
      {"measurement": "MIC", "setting": "Acinetobacter baumannii; Acinetobacter baumannii isolate 2, read-out: minimal inhibiting concentration", "result": "> 16", "unit": "µg/mL"},
      {"measurement": "MIC", "setting": "Acinetobacter baumannii; Acinetobacter baumannii isolate 3, read-out: minimal inhibiting concentration", "result": 8, "unit": "µg/mL"},
      {"measurement": "MIC", "setting": "Acinetobacter baumannii; Acinetobacter baumannii isolate 4, read-out: minimal inhibiting concentration", "result": "> 16", "unit": "µg/mL"},
      {"measurement": "MIC", "setting": "Acinetobacter baumannii; Acinetobacter baumannii isolate 5, read-out: minimal inhibiting concentration", "result": "> 16", "unit": "µg/mL"},
      {"measurement": "interpretation of the result", "setting": "Escherichia coli; Escherichia coli isolate 1", "result": "R"},
      {"measurement": "interpretation of the result", "setting": "Escherichia coli; Escherichia coli isolate 2", "result": "R"},
      {"measurement": "interpretation of the result", "setting": "Escherichia coli; Escherichia coli isolate 3", "result": "R"},
      {"measurement": "interpretation of the result", "setting": "Escherichia coli; Escherichia coli isolate 4", "result": "R"},
      {"measurement": "MIC", "setting": "Escherichia coli; Escherichia coli isolate 1, read-out: minimal inhibiting concentration", "result": "> 16", "unit": "µg/mL"},
      {"measurement": "MIC", "setting": "Escherichia coli; Escherichia coli isolate 2, read-out: minimal inhibiting concentration", "result": "> 16", "unit": "µg/mL"},
      {"measurement": "MIC", "setting": "Escherichia coli; Escherichia coli isolate 3, read-out: minimal inhibiting concentration", "result": "> 16", "unit": "µg/mL"},
      {"measurement": "MIC", "setting": "Escherichia coli; Escherichia coli isolate 4, read-out: minimal inhibiting concentration", "result": "> 16", "unit": "µg/mL"},
      {"measurement": "MIC", "setting": "Escherichia coli; Escherichia coli isolate 5, read-out: minimal inhibiting concentration", "result": 4, "unit": "µg/mL"},
      {"measurement": "interpretation of the result", "setting": "Klebsiella ssp.; Klebsiella ssp. isolate 1", "result": "R"},
      {"measurement": "interpretation of the result", "setting": "Klebsiella ssp.; Klebsiella ssp. isolate 5", "result": "R"},
      {"measurement": "MIC", "setting": "Klebsiella ssp.; Klebsiella ssp. isolate 1, read-out: minimal inhibiting concentration", "result": "> 16", "unit": "µg/mL"},
      {"measurement": "MIC", "setting": "Klebsiella ssp.; Klebsiella ssp. isolate 2, read-out: minimal inhibiting concentration", "result": "> 2", "unit": "µg/mL"},
      {"measurement": "MIC", "setting": "Klebsiella ssp.; Klebsiella ssp. isolate 3, read-out: minimal inhibiting concentration", "result": "> 2", "unit": "µg/mL"},
      {"measurement": "MIC", "setting": "Klebsiella ssp.; Klebsiella ssp. isolate 4, read-out: minimal inhibiting concentration", "result": "> 2", "unit": "µg/mL"},
      {"measurement": "MIC", "setting": "Klebsiella ssp.; Klebsiella ssp. isolate 5, read-out: minimal inhibiting concentration", "result": "> 16", "unit": "µg/mL"},
      {"measurement": "interpretation of the result", "setting": "Pseudomonas aeruginosa; [6]", "result": "R"},
      {"measurement": "interpretation of the result", "setting": "Pseudomonas aeruginosa; [7]", "result": "S"},
      {"measurement": "interpretation of the result", "setting": "Pseudomonas aeruginosa; [8]", "result": "R"},
      {"measurement": "interpretation of the result", "setting": "Pseudomonas aeruginosa; [9]", "result": "R"},
      {"measurement": "interpretation of the result", "setting": "Pseudomonas aeruginosa; [10]", "result": "R"},
      {"measurement": "MIC", "setting": "Pseudomonas aeruginosa; Pseudomonas aeruginosa isolate 1, read-out: minimal inhibiting concentration", "result": "> 16", "unit": "µg/mL"},
      {"measurement": "MIC", "setting": "Pseudomonas aeruginosa; Pseudomonas aeruginosa isolate 2, read-out: minimal inhibiting concentration", "result": 8, "unit": "µg/mL"},
      {"measurement": "MIC", "setting": "Pseudomonas aeruginosa; Pseudomonas aeruginosa isolate 3, read-out: minimal inhibiting concentration", "result": "> 16", "unit": "µg/mL"},
      {"measurement": "MIC", "setting": "Pseudomonas aeruginosa; Pseudomonas aeruginosa isolate 4, read-out: minimal inhibiting concentration", "result": "> 16", "unit": "µg/mL"},
      {"measurement": "MIC", "setting": "Pseudomonas aeruginosa; Pseudomonas aeruginosa isolate 5, read-out: minimal inhibiting concentration", "result": "> 16", "unit": "µg/mL"}
    ]},
    {"smiles": "C[C@@H](O)[C@H]1C(=O)N2C(C(=O)O)=C(SCCN=CN)C[C@H]12", "note": "[Im., Imipenem]", "values": [
      {"measurement": "interpretation of the result", "setting": "Acinetobacter baumannii; [1]", "result": "S"},
      {"measurement": "interpretation of the result", "setting": "Acinetobacter baumannii; [2]", "result": "R"},
      {"measurement": "interpretation of the result", "setting": "Acinetobacter baumannii; [3]", "result": "R"},
      {"measurement": "interpretation of the result", "setting": "Acinetobacter baumannii; [4]", "result": "S"},
      {"measurement": "interpretation of the result", "setting": "Acinetobacter baumannii; [5]", "result": "R"},
      {"measurement": "MIC", "setting": "Acinetobacter baumannii; read-out: minimal inhibiting concentration, Acinetobacter baumannii isolate 1", "result": 2, "unit": "µg/mL"},
      {"measurement": "MIC", "setting": "Acinetobacter baumannii; read-out: minimal inhibiting concentration, Acinetobacter baumannii isolate 2", "result": "> 8", "unit": "µg/mL"},
      {"measurement": "MIC", "setting": "Acinetobacter baumannii; read-out: minimal inhibiting concentration, Acinetobacter baumannii isolate 3", "result": "> 8", "unit": "µg/mL"},
      {"measurement": "MIC", "setting": "Acinetobacter baumannii; read-out: minimal inhibiting concentration, Acinetobacter baumannii isolate 4", "result": 2, "unit": "µg/mL"},
      {"measurement": "MIC", "setting": "Acinetobacter baumannii; read-out: minimal inhibiting concentration, Acinetobacter baumannii isolate 5", "result": "> 8", "unit": "µg/mL"},
      {"measurement": "interpretation of the result", "setting": "Escherichia coli; Escherichia coli isolate 1", "result": "S"},
      {"measurement": "interpretation of the result", "setting": "Escherichia coli; Escherichia coli isolate 2", "result": "S"},
      {"measurement": "interpretation of the result", "setting": "Escherichia coli; Escherichia coli isolate 3", "result": "S"},
      {"measurement": "interpretation of the result", "setting": "Escherichia coli; Escherichia coli isolate 4", "result": "S"},
      {"measurement": "interpretation of the result", "setting": "Escherichia coli; Escherichia coli isolate 5", "result": "S"},
      {"measurement": "MIC", "setting": "Escherichia coli; read-out: minimal inhibiting concentration, Escherichia coli isolate 1", "result": "≤ 1", "unit": "µg/mL"},
      {"measurement": "MIC", "setting": "Escherichia coli; read-out: minimal inhibiting concentration, Escherichia coli isolate 2", "result": "≤ 1", "unit": "µg/mL"},
      {"measurement": "MIC", "setting": "Escherichia coli; read-out: minimal inhibiting concentration, Escherichia coli isolate 3", "result": "≤ 1", "unit": "µg/mL"},
      {"measurement": "MIC", "setting": "Escherichia coli; read-out: minimal inhibiting concentration, Escherichia coli isolate 4", "result": "≤ 1", "unit": "µg/mL"},
      {"measurement": "MIC", "setting": "Escherichia coli; read-out: minimal inhibiting concentration, Escherichia coli isolate 5", "result": "≤ 1", "unit": "µg/mL"},
      {"measurement": "interpretation of the result", "setting": "Klebsiella ssp.; Klebsiella ssp. isolate 1", "result": "S"},
      {"measurement": "interpretation of the result", "setting": "Klebsiella ssp.; Klebsiella ssp. isolate 2", "result": "S"},
      {"measurement": "interpretation of the result", "setting": "Klebsiella ssp.; Klebsiella ssp. isolate 3", "result": "S"},
      {"measurement": "interpretation of the result", "setting": "Klebsiella ssp.; Klebsiella ssp. isolate 4", "result": "S"},
      {"measurement": "interpretation of the result", "setting": "Klebsiella ssp.; Klebsiella ssp. isolate 5", "result": "S"},
      {"measurement": "MIC", "setting": "Klebsiella ssp.; read-out: minimal inhibiting concentration, Klebsiella ssp. isolate 1", "result": "≤ 1", "unit": "µg/mL"},
      {"measurement": "MIC", "setting": "Klebsiella ssp.; read-out: minimal inhibiting concentration, Klebsiella ssp. isolate 2", "result": "≤ 1", "unit": "µg/mL"},
      {"measurement": "MIC", "setting": "Klebsiella ssp.; read-out: minimal inhibiting concentration, Klebsiella ssp. isolate 3", "result": "≤ 1", "unit": "µg/mL"},
      {"measurement": "MIC", "setting": "Klebsiella ssp.; read-out: minimal inhibiting concentration, Klebsiella ssp. isolate 4", "result": "≤ 1", "unit": "µg/mL"},
      {"measurement": "MIC", "setting": "Klebsiella ssp.; read-out: minimal inhibiting concentration, Klebsiella ssp. isolate 5", "result": "≤ 1", "unit": "µg/mL"},
      {"measurement": "interpretation of the result", "setting": "Pseudomonas aeruginosa; [6]", "result": "R"},
      {"measurement": "interpretation of the result", "setting": "Pseudomonas aeruginosa; [7]", "result": "R"},
      {"measurement": "interpretation of the result", "setting": "Pseudomonas aeruginosa; [8]", "result": "R"},
      {"measurement": "interpretation of the result", "setting": "Pseudomonas aeruginosa; [9]", "result": "R"},
      {"measurement": "interpretation of the result", "setting": "Pseudomonas aeruginosa; [10]", "result": "S"},
      {"measurement": "MIC", "setting": "Pseudomonas aeruginosa; read-out: minimal inhibiting concentration, Pseudomonas aeruginosa isolate 1", "result": "> 8", "unit": "µg/mL"},
      {"measurement": "MIC", "setting": "Pseudomonas aeruginosa; read-out: minimal inhibiting concentration, Pseudomonas aeruginosa isolate 2", "result": "> 8", "unit": "µg/mL"},
      {"measurement": "MIC", "setting": "Pseudomonas aeruginosa; read-out: minimal inhibiting concentration, Pseudomonas aeruginosa isolate 3", "result": "> 8", "unit": "µg/mL"},
      {"measurement": "MIC", "setting": "Pseudomonas aeruginosa; read-out: minimal inhibiting concentration, Pseudomonas aeruginosa isolate 4", "result": "> 8", "unit": "µg/mL"},
      {"measurement": "MIC", "setting": "Pseudomonas aeruginosa; read-out: minimal inhibiting concentration, Pseudomonas aeruginosa isolate 5", "result": 2, "unit": "µg/mL"}
    ]}
  ]
}
